Assay results taken from PubChem BioAssay AID1963838 (Molecular Pharmacology Branch, DTP, NCI, 2024).
pIC50: −log10 of the molar value.

Tested on: 855422-203-R-J1-PDC complex spheroid viability
Experiment: Anticancer human tumor 855422-203-R-J1-PDC patient-derived bladder carcinoma cell line growth inhibition [POLQ]
Conditions: for pIC50: curve of first compound; for viability, T/C: stronger effect = lower value
Outline: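 Growth inhibition in 3D: complex spheroids (tumor PDC, HUVEC, MSC) treated with POLQ inhibitor combinations; where Cmax unknown, highest tested concentration 10 microM, except SN-38 at 1 microM.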

[1] = second compound 0.0316 µM, first compound 0.0316 µM
[2] = second compound 0.0316 µM, first compound 0.1 µM
[3] = second compound 0.0316 µM, first compound 0.316 µM
[4] = second compound 0.0316 µM, first compound 1 µM
[5] = second compound 0.0316 µM, first compound 3.16 µM
[6] = second compound 0.0316 µM, first compound 10 µM
[7] = second compound 0.1 µM, first compound 0.0316 µM
[8] = second compound 0.1 µM, first compound 0.1 µM
[9] = second compound 0.1 µM, first compound 0.316 µM
[10] = second compound 0.1 µM, first compound 1 µM
[11] = second compound 0.1 µM, first compound 3.16 µM
[12] = second compound 0.1 µM, first compound 10 µM
[13] = second compound 0.316 µM, first compound 0.0316 µM
[14] = second compound 0.316 µM, first compound 0.1 µM
[15] = second compound 0.316 µM, first compound 0.316 µM
[16] = second compound 0.316 µM, first compound 1 µM
[17] = second compound 0.316 µM, first compound 3.16 µM
[18] = second compound 0.316 µM, first compound 10 µM
[19] = second compound 1 µM, first compound 0.0316 µM
[20] = second compound 1 µM, first compound 0.1 µM
[21] = second compound 1 µM, first compound 0.316 µM
[22] = second compound 1 µM, first compound 1 µM
[23] = second compound 1 µM, first compound 3.16 µM
[24] = second compound 1 µM, first compound 10 µM
[25] = second compound 3.16 µM, first compound 0.0316 µM
[26] = second compound 3.16 µM, first compound 0.1 µM
[27] = second compound 3.16 µM, first compound 0.316 µM
[28] = second compound 3.16 µM, first compound 1 µM
[29] = second compound 3.16 µM, first compound 3.16 µM
[30] = second compound 3.16 µM, first compound 10 µM
[31] = second compound 10 µM, first compound 0.0316 µM
[32] = second compound 10 µM, first compound 0.1 µM
[33] = second compound 10 µM, first compound 0.316 µM
[34] = second compound 10 µM, first compound 1 µM
[35] = second compound 10 µM, first compound 3.16 µM
[36] = second compound 10 µM, first compound 10 µM
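Further: spheroids exposed to compounds for seven days before readout.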

Structure (SMILES): CC1COCCN1c1cc(-c2ccnn2C)c2ccnc(-c3ccn[nH]3)c2n1 (stereo unspecified) + Cc1cccc(N(C)C(=O)C2C(O)CCN2c2nc(C)cc(C(F)(F)F)c2C#N)c1
- pIC50 (second compound 0.0316 µM): 6.77
- pIC50 (second compound 0.1 µM): 6.82
- pIC50 (second compound 0.316 µM): 6.78
- pIC50 (second compound 1 µM): 6.78
- pIC50 (second compound 3.16 µM): 6.81
- pIC50 (second compound 10 µM): 6.78
- viability, T/C [1]: 113%
- viability, T/C [2]: 73%
- viability, T/C [3]: 21.4%
- viability, T/C [4]: 12.4%
- viability, T/C [5]: 7.93%
- viability, T/C [6]: 7.23%
- viability, T/C [7]: 94.7%
- viability, T/C [8]: 68.9%
- viability, T/C [9]: 17.3%
- viability, T/C [10]: 9.3%
- viability, T/C [11]: 8.23%
- viability, T/C [12]: 7.12%
- viability, T/C [13]: 108%
- viability, T/C [14]: 73.4%
- viability, T/C [15]: 20.4%
- viability, T/C [16]: 10.9%
- viability, T/C [17]: 7.43%
- viability, T/C [18]: 7.37%
- viability, T/C [19]: 111%
- viability, T/C [20]: 70.3%
- viability, T/C [21]: 23.3%
- viability, T/C [22]: 11.7%
- viability, T/C [23]: 8.35%
- viability, T/C [24]: 7.83%
- viability, T/C [25]: 105%
- viability, T/C [26]: 66.8%
- viability, T/C [27]: 22.7%
- viability, T/C [28]: 10.6%
- viability, T/C [29]: 7.46%
- viability, T/C [30]: 6.31%
- viability, T/C [31]: 93.5%
- viability, T/C [32]: 70.3%
- viability, T/C [33]: 24.7%
- viability, T/C [34]: 12.4%
- viability, T/C [35]: 8.8%
- viability, T/C [36]: 9.23%

Structure (SMILES): Cn1ncnc1[C@H]1c2n[nH]c(=O)c3cc(F)cc(c23)N[C@@H]1c1ccc(F)cc1 + COC1C(OC(N)=O)C(O)C(Oc2ccc3c(O)c(NC(=O)c4ccc(O)c(CC=C(C)C)c4)c(=O)oc3c2C)OC1(C)C
- pIC50 (second compound 0.0316 µM): < 7.00
- pIC50 (second compound 0.1 µM): < 7.00
- pIC50 (second compound 0.316 µM): < 7.00
- pIC50 (second compound 1 µM): < 7.00
- pIC50 (second compound 3.16 µM): < 7.00
- pIC50 (second compound 10 µM): < 7.00
- viability, T/C (second compound 0.0316 µM, first compound 0.000316 µM): 94.6%
- viability, T/C (second compound 0.0316 µM, first compound 0.001 µM): 104%
- viability, T/C (second compound 0.0316 µM, first compound 0.00316 µM): 116%
- viability, T/C (second compound 0.0316 µM, first compound 0.01 µM): 106%
- viability, T/C [1]: 108%
- viability, T/C [2]: 108%
- viability, T/C (second compound 0.1 µM, first compound 0.000316 µM): 81.8%
- viability, T/C (second compound 0.1 µM, first compound 0.001 µM): 93.8%
- viability, T/C (second compound 0.1 µM, first compound 0.00316 µM): 113%
- viability, T/C (second compound 0.1 µM, first compound 0.01 µM): 95.3%
- viability, T/C [7]: 99.7%
- viability, T/C [8]: 96.6%
- viability, T/C (second compound 0.316 µM, first compound 0.000316 µM): 106%
- viability, T/C (second compound 0.316 µM, first compound 0.001 µM): 106%
- viability, T/C (second compound 0.316 µM, first compound 0.00316 µM): 101%
- viability, T/C (second compound 0.316 µM, first compound 0.01 µM): 108%
- viability, T/C [13]: 95.4%
- viability, T/C [14]: 118%
- viability, T/C (second compound 1 µM, first compound 0.000316 µM): 110%
- viability, T/C (second compound 1 µM, first compound 0.001 µM): 99.7%
- viability, T/C (second compound 1 µM, first compound 0.00316 µM): 106%
- viability, T/C (second compound 1 µM, first compound 0.01 µM): 107%
- viability, T/C [19]: 103%
- viability, T/C [20]: 95.9%
- viability, T/C (second compound 3.16 µM, first compound 0.000316 µM): 105%
- viability, T/C (second compound 3.16 µM, first compound 0.001 µM): 106%
- viability, T/C (second compound 3.16 µM, first compound 0.00316 µM): 98.2%
- viability, T/C (second compound 3.16 µM, first compound 0.01 µM): 94.4%
- viability, T/C [25]: 95.9%
- viability, T/C [26]: 102%
- viability, T/C (second compound 10 µM, first compound 0.000316 µM): 108%
- viability, T/C (second compound 10 µM, first compound 0.001 µM): 97.2%
- viability, T/C (second compound 10 µM, first compound 0.00316 µM): 101%
- viability, T/C (second compound 10 µM, first compound 0.01 µM): 109%
- viability, T/C [31]: 100%
- viability, T/C [32]: 84%

Structure (SMILES): CCCS(=O)(=O)Nc1ccc(F)c(C(=O)c2c[nH]c3ncc(-c4ccc(Cl)cc4)cc23)c1F + COC1C(OC(N)=O)C(O)C(Oc2ccc3c(O)c(NC(=O)c4ccc(O)c(CC=C(C)C)c4)c(=O)oc3c2C)OC1(C)C
- pIC50 (second compound 0.0316 µM): 5.23
- pIC50 (second compound 0.1 µM): 5.23
- pIC50 (second compound 0.316 µM): 5.23
- pIC50 (second compound 1 µM): 5.26
- pIC50 (second compound 3.16 µM): 5.24
- pIC50 (second compound 10 µM): 5.23
- viability, T/C [1]: 112%
- viability, T/C [2]: 94.6%
- viability, T/C [3]: 113%
- viability, T/C [4]: 116%
- viability, T/C [5]: 113%
- viability, T/C [6]: 0.27%
- viability, T/C [7]: 117%
- viability, T/C [8]: 108%
- viability, T/C [9]: 115%
- viability, T/C [10]: 107%
- viability, T/C [11]: 106%
- viability, T/C [12]: 1.29%
- viability, T/C [13]: 118%
- viability, T/C [14]: 96.7%
- viability, T/C [15]: 114%
- viability, T/C [16]: 107%
- viability, T/C [17]: 109%
- viability, T/C [18]: 1.4%
- viability, T/C [19]: 119%
- viability, T/C [20]: 117%
- viability, T/C [21]: 108%
- viability, T/C [22]: 94.2%
- viability, T/C [23]: 98.7%
- viability, T/C [24]: 0.24%
- viability, T/C [25]: 102%
- viability, T/C [26]: 111%
- viability, T/C [27]: 110%
- viability, T/C [28]: 118%
- viability, T/C [29]: 103%
- viability, T/C [30]: 0.36%
- viability, T/C [31]: 108%
- viability, T/C [32]: 108%
- viability, T/C [33]: 96.2%
- viability, T/C [34]: 116%
- viability, T/C [35]: 110%
- viability, T/C [36]: 0.68%
